Measurements published in publication PMC8625207, “Antikinetoplastid Activity of Sesquiterpenes Isolated from the Zoanthid Palythoa aff. clavata” (Pharmaceuticals, 2021).

test system: promastigotes of Leishmania donovani strain (MHOM/IN/90/GE1F8R); experiment: alamarBlue activity against promastigotes of L. donovani; type: cell-based; conditions: Leishmania donovani; 72 h of incubation; mean with standard deviation
Procedure: (§1) For the anti-leishmanicidal experiments, promastigotes and amastigotes of Leishmania amazonensis strain (MHOM/BR/77/LTB0016) and promastigotes of Leishmania donovani strain (MHOM/IN/90/GE1F8R) were used, and they were maintained in RPMI 1640 medium (Gibco, Waltham, MA, USA) at 26 °C. For the trypanocidal experiments, epimastigotes of Trypanosoma cruzi (Y strain) were used, and they were maintained in liver infusion tryptose (LIT) medium supplemented with 10% of fetal bovine serum (FBS) at 26 °C. Murine macrophages J774A.1 (ATCC #TIB-67), maintained in DMEM medium at 37 °C with 5% CO2, were used for the cytotoxic activity assays.
(§2) For the activity against extracellular parasites of kinetoplastid, Leishmania and Trypanosoma parasites, in a 96-well plate, serial dilutions of the compounds were added with dilutions of 10^5 parasites per well and a 10% of alamarBlue Cell Viability Reagent® (Thermo Fisher Scientific, Waltham, MA, USA). After 72 h of incubation at 26 °C, the fluorescence of each well was measured in the EnSpire Multimode Plate Reader® (PerkinElmer, Thermo Fisher Scientific, Madrid, Spain). The inhibitory concentration 50 (IC50) was calculated by nonlinear regression analysis.

SMILES	IC50 [µM]
C=C1CCC2C(=C)C(=O)OC2C=C(C)CCC1=O (stereo not shown) [Anhydroartemorin (2), anhydroartemorin]	> 102
C=C1C(=O)O[C@H]2CC(=C)[C@H]3CCC(=C)[C@@H](O3)[C@@H](O)[C@H]12 [Dehydroxyisobadgerin (9), dehydroxyisobadgerin]	34 ± 3.32
C=C1C(=O)O[C@H]2CC(=C)[C@@H](O)CC/C(C)=C/[C@@H](O)[C@H]12 [Tanachin (6), tanachin]	> 94.6
C=C1C(=O)O[C@H]2CC(=C)[C@H]3CC[C@@](C)(O)[C@@H](O3)[C@@H](O)[C@H]12 [Isobadgerin (8), isobadgerin]	> 89.2

same assay, conditions: selectivity index CC50/IC50 (macrophages J744A.1 vs parasite)

SMILES	Promastigotes L. donovani SI
C=C1CCC2C(=C)C(=O)OC2C=C(C)CCC1=O (stereo not shown) [Anhydroartemorin (2), anhydroartemorin]	<1.76
C=C1C(=O)O[C@H]2CC(=C)[C@H]3CCC(=C)[C@@H](O3)[C@@H](O)[C@H]12 [Dehydroxyisobadgerin (9), dehydroxyisobadgerin]	1.47
C=C1C(=O)O[C@H]2CC(=C)[C@@H](O)CC/C(C)=C/[C@@H](O)[C@H]12 [Tanachin (6), tanachin]	<1.05
C=C1C(=O)O[C@H]2CC(=C)[C@H]3CC[C@@](C)(O)[C@@H](O3)[C@@H](O)[C@H]12 [Isobadgerin (8), isobadgerin]	<1.01

test system: promastigotes of Leishmania amazonensis strain (MHOM/BR/77/LTB0016); experiment: alamarBlue activity against promastigotes of L. amazonensis; type: cell-based; conditions: Leishmania amazonensis; 72 h of incubation; mean with standard deviation
Procedure: as §1, §2

SMILES	IC50 [µM]
C=C1CCC2C(=C)C(=O)OC2C=C(C)CCC1=O (stereo not shown) [Anhydroartemorin (2), anhydroartemorin]	25.6 ± 5.88
C=C1C(=O)O[C@H]2CC(=C)[C@H]3CCC(=C)[C@@H](O3)[C@@H](O)[C@H]12 [Dehydroxyisobadgerin (9), dehydroxyisobadgerin]	25.5 ± 3.2
C=C1C(=O)O[C@H]2CC(=C)[C@@H](O)CC/C(C)=C/[C@@H](O)[C@H]12 [Tanachin (6), tanachin]	> 94.6
C=C1C(=O)O[C@H]2CC(=C)[C@H]3CC[C@@](C)(O)[C@@H](O3)[C@@H](O)[C@H]12 [Isobadgerin (8), isobadgerin]	> 89.2

same assay, conditions: selectivity index CC50/IC50

SMILES	Promastigotes L. amazonensis SI
C=C1CCC2C(=C)C(=O)OC2C=C(C)CCC1=O (stereo not shown) [Anhydroartemorin (2), anhydroartemorin]	7.00
C=C1C(=O)O[C@H]2CC(=C)[C@H]3CCC(=C)[C@@H](O3)[C@@H](O)[C@H]12 [Dehydroxyisobadgerin (9), dehydroxyisobadgerin]	1.96
C=C1C(=O)O[C@H]2CC(=C)[C@@H](O)CC/C(C)=C/[C@@H](O)[C@H]12 [Tanachin (6), tanachin]	<1.05
C=C1C(=O)O[C@H]2CC(=C)[C@H]3CC[C@@](C)(O)[C@@H](O3)[C@@H](O)[C@H]12 [Isobadgerin (8), isobadgerin]	<1.01

test system: epimastigotes of T. cruzi; experiment: not given; conditions: not given

SMILES	Plasmatic membrane permeability
C=C1CCC2C(=C)C(=O)OC2C=C(C)CCC1=O (stereo not shown) [Anhydroartemorin (2), anhydroartemorin]	increase on the plasmatic membrane permeability

test system: promastigotes of L. amazonensis; experiment: Chromatin condensation, Hoechst 33342/propidium iodide; type: cell-based, Leishmania amazonensis; conditions: IC90, 24 h

SMILES	Chromatin condensation
C=C1CCC2C(=C)C(=O)OC2C=C(C)CCC1=O (stereo not shown) [Anhydroartemorin (2), anhydroartemorin]	induced chromatin condensation

test system: epimastigotes of T. cruzi; experiment: Reactive oxygen species detection, CellROX Deep Red; type: cell-based, Trypanosoma cruzi; conditions: IC90, 24 h

SMILES	Reactive oxygen species detection
C=C1CCC2C(=C)C(=O)OC2C=C(C)CCC1=O (stereo not shown) [Anhydroartemorin (2), anhydroartemorin]	intense fluorescence due to ROS detection

test system: L. amazonensis; experiment: ATP levels, CellTiter-Glo; type: cell-based, Leishmania amazonensis; conditions: IC90, 24 h, negative control = 100%
Procedure: (§3) The levels of ATP were measured by using CellTiter-Glo® reagent, and values of luminescence were obtained by the EnSpire Multimode Plate Reader®. Results were processed and represented in Figure 4 as the percentage of ATP relative to the negative control (without treatment) that corresponds with 100% of ATP level.
(§4) The levels of ATP in the wells were measured by using the CellTiter-Glo® Luminescent Cell Viability Assay (Promega, WI, USA). […] These volumes were transferred to a white plate, and 25 μL of kit was added to each well. After 10 min of incubation at room temperature, the luminescence was determined by using the EnSpire Multimode Plate Reader® (PerkinElmer), and the results were expressed as the percentage of production of ATP relative to the negative control (without any treatment). All of the experiments were performed in triplicate in three different days (n = 3).

SMILES	Percentage of ATP relative to the negative control [%]
C=C1CCC2C(=C)C(=O)OC2C=C(C)CCC1=O (stereo not shown) [Anhydroartemorin (2), anhydroartemorin]	28.76

test system: amastigotes of L. amazonensis; experiment: alamarBlue activity against intracellular amastigotes of L. amazonensis in murine macrophages; type: cell-based, Leishmania amazonensis; conditions: Leishmania amazonensis, Macrophage; 24 h of incubation; intracellular form in murine macrophages
Procedure: as §1
To determinate the IC50 against the intracellular form of the parasite amastigotes of L. amazonensis, the alamarBlue colorimetric method was also used. In a 96-well plate, murine macrophages were added in a concentration of 10^4 cells per well. After adherence of the cells, 10^5 promastigotes of the parasite were added to reach 1:10 cell:parasites per well. After 24 h of incubation at 37 °C with 5% of CO2 for the internalization of the parasite, the wells were washed, and serial dilutions of the compounds were added. After an incubation of 24 h with the compounds, the wells were washed, and the macrophages were broken with a solution of SDS (Sodium dodecyl sulfate) at 0.05% for 30 s. After adding fresh RPMI medium, we added 10% of alamarBlue, and the plates were incubated at 26 °C for 96 h. Finally, the fluorescence was measured by using the EnSpire Multimode Plate Reader® (PerkinElmer, Thermo Fisher Scientific, Madrid, Spain), and the IC50 of each compound was calculated.

SMILES	IC50 [µM]
C=C1CCC2C(=C)C(=O)OC2C=C(C)CCC1=O (stereo not shown) [Anhydroartemorin (2), anhydroartemorin]	7.44 ± 0.45

same assay, conditions: selectivity index CC50/IC50

SMILES	Amastigotes L. amazonensis SI
C=C1CCC2C(=C)C(=O)OC2C=C(C)CCC1=O (stereo not shown) [Anhydroartemorin (2), anhydroartemorin]	24.06

test system: T. cruzi; experiment: ATP levels, CellTiter-Glo; type: cell-based, Trypanosoma cruzi; conditions: IC90, 24 h, negative control = 100%
Procedure: as §3, §4

SMILES	Percentage of ATP relative to the negative control [%]
C=C1CCC2C(=C)C(=O)OC2C=C(C)CCC1=O (stereo not shown) [Anhydroartemorin (2), anhydroartemorin]	27.17

test system: not listed separately; experiment: alamarBlue cytotoxicity on murine macrophages; type: cell-based; conditions: mouse, J774A.1 macrophages; 24 h of incubation; read-out: Macrophages J744A.1 CC50

SMILES	CC50 at 24 h [µM]
C=C1CCC2C(=C)C(=O)OC2C=C(C)CCC1=O (stereo not shown) [Anhydroartemorin (2), anhydroartemorin]	179 ± 2.27
C=C1C(=O)O[C@H]2CC(=C)[C@H]3CCC(=C)[C@@H](O3)[C@@H](O)[C@H]12 [Dehydroxyisobadgerin (9), dehydroxyisobadgerin]	50 ± 13.1
C=C1C(=O)O[C@H]2CC(=C)[C@@H](O)CC/C(C)=C/[C@@H](O)[C@H]12 [Tanachin (6), tanachin]	99.2 ± 4.43
C=C1C(=O)O[C@H]2CC(=C)[C@H]3CC[C@@](C)(O)[C@@H](O3)[C@@H](O)[C@H]12 [Isobadgerin (8), isobadgerin]	89.7 ± 3.92

test system: promastigotes of L. amazonensis; experiment: Plasmatic membrane permeability, SYTOX Green; type: cell-based, Leishmania amazonensis; conditions: IC90, 24 h

SMILES	Plasmatic membrane permeability
C=C1CCC2C(=C)C(=O)OC2C=C(C)CCC1=O (stereo not shown) [Anhydroartemorin (2), anhydroartemorin]	increase on the plasmatic membrane permeability

test system: epimastigotes of Trypanosoma cruzi (Y strain); experiment: alamarBlue activity against epimastigotes of T. cruzi; type: cell-based; conditions: Trypanosoma cruzi; 72 h of incubation; mean with standard deviation
Procedure: as §1, §2

SMILES	IC50 [µM]
C=C1CCC2C(=C)C(=O)OC2C=C(C)CCC1=O (stereo not shown) [Anhydroartemorin (2), anhydroartemorin]	13 ± 4.95
C=C1C(=O)O[C@H]2CC(=C)[C@H]3CCC(=C)[C@@H](O3)[C@@H](O)[C@H]12 [Dehydroxyisobadgerin (9), dehydroxyisobadgerin]	59.8 ± 9.76
C=C1C(=O)O[C@H]2CC(=C)[C@@H](O)CC/C(C)=C/[C@@H](O)[C@H]12 [Tanachin (6), tanachin]	> 94.6
C=C1C(=O)O[C@H]2CC(=C)[C@H]3CC[C@@](C)(O)[C@@H](O3)[C@@H](O)[C@H]12 [Isobadgerin (8), isobadgerin]	> 89.2

same assay, conditions: selectivity index CC50/IC50

SMILES	Epimastigotes T. cruzi SI
C=C1CCC2C(=C)C(=O)OC2C=C(C)CCC1=O (stereo not shown) [Anhydroartemorin (2), anhydroartemorin]	13.76
C=C1C(=O)O[C@H]2CC(=C)[C@H]3CCC(=C)[C@@H](O3)[C@@H](O)[C@H]12 [Dehydroxyisobadgerin (9), dehydroxyisobadgerin]	0.84
C=C1C(=O)O[C@H]2CC(=C)[C@@H](O)CC/C(C)=C/[C@@H](O)[C@H]12 [Tanachin (6), tanachin]	<1.05
C=C1C(=O)O[C@H]2CC(=C)[C@H]3CC[C@@](C)(O)[C@@H](O3)[C@@H](O)[C@H]12 [Isobadgerin (8), isobadgerin]	<1.01

test system: epimastigotes of T. cruzi; experiment: Chromatin condensation, Hoechst 33342/propidium iodide; type: cell-based, Trypanosoma cruzi; conditions: IC90, 24 h

SMILES	Chromatin condensation
C=C1CCC2C(=C)C(=O)OC2C=C(C)CCC1=O (stereo not shown) [Anhydroartemorin (2), anhydroartemorin]	caused chromatin condensation
